# Laboratory results: patent US20240002368A1 (QILU REGOR THERAPEUTICS INC., priority 2020, published 2024)
# Tested on: STING pathway
# Assay: IFN β reporter assay (HTRF, 2′3′-cGAMP-stimulated THP1 cells)
# Type: cell-based, human
# Settings: Homo sapiens, THP-1, THP1 cells, 5 μM 2′3′-cGAMP, IFN β secretion inhibition; class symbols; read-out: IFN β reporter activity IC50
# Procedure: STING pathway deactivation by the compounds described herein was measured using THP1 cells. The THP1 Cells (obtained from ATCC, Cat #TIB-202) were maintained in RPMI-1640 (Gibco, Cat #22400105), 10% FBS, 1% Pen-Strep, 0.05 mM 2-mercaptoethanol. For STING activation, 2′3′-cGAMP (MW 718.38, obtained from Invivogen) was used and prepared in serum-free RPMI-1640 media. Growth media: RPMI-1640 (HEPES, glutamine), 10% FBS, 1% Pen-Strep, 0.05 mM 2-mercaptoethanol. Assay media: RPMI-1640 (HEPES, glutamine), 0.5% FBS. 2′3′-cGAMP: Dissolve 2′3′-cGAMP to 10 mM stock in H2O.
# The cells were prepared and seeded at 100K, 90 μL/well with assay media in cell culture plate (Greiner 655180). The compounds were added in 96-well tissue culture plates by Tecan D300e for a final concentration of 0.00137-3 μM.
# Lipo2000/3000 and 2′3′-cGAMP stock solutions were diluted respectively in serum-free RPMI-1640 media. The diluted 2′3′-cGAMP and Lipo (V/V=1:1) were mixed and stood for 15 min at room temperature. 10 μL 2,3-cGAMP/Lipofectamine (10×) was transferred to the 96-well assay plate with a final 2′3′-cGAMP concentration of 5 μM. The cell plates were centrifuged at 1000 rpm for 5 min after incubating at 37° C., 5% CO2 overnight.
# All reagents (human IFN beta kit, Cisbio 62HIFNBPEG) were warmed to room temperature for at least 30 min before the assay. The instructions of the kit were followed to prepare the detection media. 14 μL of cell supernatants was transferred into their dedicated wells in 384-well plate. Then 2 μL of the activation reagent solution and 4 μL of the mixed antibody solution were added to all wells. The plate was sealed and incubated for 3 h at room temperature.
# The HTRF signal was read in Envision (PerkinElmer). IFN β reporter activity was then measured. The calculated ratio is the signal at 665 nm/signal at 615 nm. IC50 values are calculated by using standard methods known in the art.
row,Structure (SMILES),IC50 [µM]
1,"CN(Cc1cc2c(cc1F)c(C(=O)Nc1c[nH]c3ccc(F)cc13)cn2C)CC(F)(F)F [Example 92, 5-fluoro-N-(5-fluoro-1H-indol-3-yl)-1-methyl-6-[[methyl(2,2,2-trifluoroethyl)amino]methyl]indole-3-carboxamide]",0.05 to 0.2
2,O=C(Nc1c[nH]c2ccc(F)cc12)c1cnn2cc(Br)ccc12 [Example 24],< 0.05
3,O=C(Nc1c[nH]c2ccc(F)cc12)c1n[nH]c2cc(C3=CCOCC3)ccc12 [Example 29],0.05 to 0.2
4,O=C(Nc1c[nH]c2ccc(F)cc12)c1n[nH]c2cc(CNCC(F)(F)F)ccc12 [Example 93],0.05 to 0.2
5,O=C(Nc1c[nH]c2cc(F)c(F)cc12)c1cnn2cc(Br)ccc12 [Example 59],0.2 to 1
6,Cn1cc(C(=O)Nc2c[nH]c3ccc(P(C)(C)=O)cc23)c2ccc(C(F)(F)F)cc21 [Example 21],> 1
7,O=C(Nc1c[nH]c2ccc(F)cc12)c1cc2ccc(C(F)(F)F)cc2[nH]1 [Example 78],0.05 to 0.2
8,Cn1cc(C(=O)Nc2c[nH]c3ccc(F)cc23)c2ccc(C3CCOCC3)cc21 [Example 73],0.05 to 0.2
9,O=C(Nc1c[nH]c2c(F)cccc12)c1n[nH]c2cc(C(F)(F)F)ccc12 [Example 6],0.2 to 1
10,"CN1CCC(c2cc3c(cc2F)c(C(=O)Nc2c[nH]c4ccc(F)cc24)cn3C)CC1 [Example 116, 5-fluoro-N-(5-fluoro-1H-indol-3-yl)-1-methyl-6-(1-methyl-4-piperidyl)indole-3-carboxamide]",> 1
11,O=C(Nc1c[nH]c2ccc(F)cc12)c1c[nH]c2cc(C(F)(F)F)ccc12 [Example 53],< 0.05
12,"O=C(Nc1c[nH]c2ccc(F)cc12)c1n[nH]c2cc(N3CCOCC3)ccc12 [Example 60, N-(5-fluoro-1H-indol-3-yl)-6-morpholino-1H-indazole-3-carboxamide]",0.2 to 1
13,Cn1cc(C(=O)Nc2c[nH]c3ccc(F)cc23)c2ccc(OCC(F)(F)F)nc21 [Example 74],0.05 to 0.2
14,O=C(Nc1c[nH]c2ccc(F)cc12)c1n[nH]c2cc(C(F)(F)F)ccc12 [Example 8],< 0.05
15,"Cn1nc(C(=O)Nc2c[nH]c3ccccc23)c2ccc(C#N)cc21 [Example 86, 6-cyano-N-(1H-indol-3-yl)-1-methyl-indazole-3-carboxamide]",> 1
16,Cn1cc(C(=O)Nc2c[nH]c3ccc(C(N)=O)cc23)c2ccc(C(F)(F)F)cc21 [Example 34],> 1
17,O=C(Nc1c[nH]c2ccc(F)cc12)c1cnn2cc(C(F)(F)F)ccc12 [Example 66],0.2 to 1
18,O=C(Nc1c[nH]c2cc(F)c(F)cc12)c1n[nH]c2ncc(Br)cc12 [Example 68],0.05 to 0.2
19,Cn1cc(C(=O)Nc2c[nH]c3ccc(F)cc23)c2cc(F)c(CN3CCC(F)(F)CC3)cc21 [Example 98],< 0.05
20,"Cn1cc(C(=O)Nc2c[nH]c3ccc(F)cc23)c2cc(F)c(CNCCC(F)(F)F)cc21 [Example 97, 5-fluoro-N-(5-fluoro-1H-indol-3-yl)-1-methyl-6-[(3,3,3-trifluoropropylamino)methyl]indole-3-carboxamide]",0.05 to 0.2
21,O=C(Nc1c[nH]c2ccc(Br)cc12)c1n[nH]c2cc(C(F)(F)F)ccc12 [Example 15],< 0.05
22,"CC(NCC(F)(F)F)c1cc2c(cc1F)c(C(=O)Nc1c[nH]c3ccc(F)cc13)cn2C (racemic) [Example 107, rac-5-fluoro-N-(5-fluoro-1H-indol-3-yl)-1-methyl-6-[1-(2,2,2-trifluoroethylamino)ethyl]indole-3-carboxamide]",0.05 to 0.2

row,Structure (SMILES),IC50 [µM]
1,O=C(Nc1c[nH]c2ccccc12)c1n[nH]c2cc(C3CCOCC3)ccc12 [Example 16],0.05 to 0.2
2,O=C(Nc1c[nH]c2cccc(F)c12)c1n[nH]c2cc(C(F)(F)F)ccc12 [Example 26],0.05 to 0.2
3,"CN1CCC(c2cc3c(cc2Cl)c(C(=O)Nc2c[nH]c4ccc(C#N)cc24)cn3C)CC1 [Example 120, 5-chloro-N-(5-cyano-1H-indol-3-yl)-1-methyl-6-(1-methyl-4-piperidyl)indole-3-carboxamide]",> 1
4,Cn1cc(C(=O)Nc2c[nH]c3ccc(F)cc23)c2cc(F)c(C3=CCOCC3)cc21 [Example 80],0.05 to 0.2
5,C[C@H]1COCCN1c1cc2c(cc1F)c(C(=O)Nc1c[nH]c3ccc(F)cc13)cn2C [Example 49],0.2 to 1
6,Cn1cc(C(=O)Nc2c[nH]c3ccc(N4CCN(C(=O)OC(C)(C)C)CC4=O)cc23)c2ccc(C(F)(F)F)cc21 [Example 38],0.05 to 0.2
7,Cn1cc(C(=O)Nc2c[nH]c3ccc(C#N)cc23)c2cc(Cl)c(C3=CCOCC3)cc21 [Example 55],0.05 to 0.2
8,O=C(Nc1c[nH]c2ccc(F)cc12)c1n[nH]c2cc(Oc3ccncc3)ccc12 [Example 62],> 1
9,CN(Cc1ccc2[nH]cc(NC(=O)c3cn(C)c4cc(C(F)(F)F)ccc34)c2c1)C(=O)OC(C)(C)C [Example 39],0.05 to 0.2
10,O=C(Nc1c[nH]c2cc(F)c(F)cc12)c1cc2ccc(Br)cn2n1 [Example 58],0.2 to 1
11,C[C@H](NCc1cc2c(cc1F)c(C(=O)Nc1c[nH]c3ccc(F)cc13)cn2C)C(F)(F)F [Example 104],< 0.05
12,O=C(Nc1c[nH]c2ccccc12)c1n[nH]c2cc(C(F)(F)F)ccc12 [Example 31],< 0.05
13,Cn1cc(C(=O)Nc2c[nH]c3ccc(F)cc23)c2cc(F)c(CN3CCCCC3)cc21 [Example 99],> 1
14,Cn1cc(C(=O)Nc2c[nH]c3ccc(F)cc23)c2cc(F)c(CNC3CCC(F)(F)CC3)cc21 [Example 100],0.05 to 0.2
15,O=C(Nc1c[nH]c2ccc(F)cc12)c1n[nH]c2cc(OC(F)(F)F)ccc12 [Example 11],0.2 to 1
16,O=C(Nc1c[nH]c2ccccc12)c1cc2ccc(C(F)(F)F)cc2[nH]1 [Example 56],0.05 to 0.2
17,C#Cc1ccc2c(C(=O)Nc3c[nH]c4ccc(F)cc34)n[nH]c2c1 [Example 14],0.05 to 0.2
18,O=C(Nc1c[nH]c2cc(F)c(F)cc12)c1n[nH]c2nc(OCC(F)(F)F)ccc12 [Example 70],0.05 to 0.2
19,CCCCc1ccc2c(C(=O)Nc3c[nH]c4ccc(F)cc34)n[nH]c2c1 [Example 61],0.05 to 0.2
20,CN1CCC(c2ccc3c(C(=O)Nc4c[nH]c5ccc(F)cc45)cn(C)c3c2)CC1 [Example 118],> 1
21,Cn1cc(C(=O)Nc2c[nH]c3ccc(F)cc23)c2ccc(C3=CCOCC3)cc21 [Example 72],0.05 to 0.2
22,Cn1cc(C(=O)Nc2c[nH]c3ccc(F)cc23)c2cc(F)c(CN3CCN(CC(F)(F)F)CC3)cc21 [Example 101],0.05 to 0.2

# Same assay, conditions: Homo sapiens, THP-1, THP1 cells, 5 μM 2′3′-cGAMP, IFN β secretion inhibition; numeric values (comparators); read-out: IFN β reporter activity IC50
row,Structure (SMILES),IC50 [µM]
1,"O=C(Nc1c[nH]c2cc(F)c(F)cc12)c1nc2ccncc2s1 [Comparator B, reference compound]",> 3
2,"CN(C(=O)c1n[nH]c2cc(C(F)(F)F)ccc12)c1c[nH]c2ccc(F)cc12 [Comparator E, reference compound]",12
3,"Cn1cc(NC(=O)c2cn(C)c3cc(C(F)(F)F)ccc23)c2cc(C#N)ccc21 [Comparator D, reference compound]",10

# Same assay, conditions: Homo sapiens, THP-1, read-out: IFN β reporter activity IC50
row,Structure (SMILES),IC50 [µM]
1,"CN1CC(n2cc(C(=O)Nc3c[nH]c4ccc(F)cc34)c3ccc(C(F)(F)F)cc32)C1 [Example 114, N-(5-fluoro-1H-indol-3-yl)-1-(1-methylazetidin-3-yl)-6-(trifluoromethyl)indole-3-carboxamide]",> 1
2,COCCOc1ccc2c(C(=O)Nc3c[nH]c4ccc(C#N)cc34)cn(C3CC3)c2n1 [Example 47],0.2 to 1
3,"CN1CC=C(c2cc3c(cc2F)c(C(=O)Nc2c[nH]c4ccc(F)cc24)cn3C)CC1 [Example 115, 5-fluoro-N-(5-fluoro-1H-indol-3-yl)-1-methyl-6-(1-methyl-3,6-dihydro-2H-pyridin-4-yl)indole-3-carboxamide]",> 1
4,CC(C)n1nc(C(=O)Nc2c[nH]c3ccccc23)c2ccc(C(F)(F)F)cc21 [Example 5],0.2 to 1
5,Cn1cc(C(=O)Nc2c[nH]c3ccc(F)cc23)c2ccc(Cl)cc21 [Example 32],< 0.05
6,"Cn1nc(C(=O)Nc2c[nH]c3ccccc23)c2ccc(C(F)(F)F)cc21 [Example 1, N-(1H-indol-3-yl)-1-methyl-6-(trifluoromethyl)indazole-3-carboxamide]",0.05 to 0.2
7,"O=C(Nc1c[nH]c2ccc(F)cc12)c1cn(C2CC2)c2cc(C(F)(F)F)ccc12 [Example 67, 1-cyclopropyl-N-(5-fluoro-1H-indol-3-yl)-6-(trifluoromethyl)indole-3-carboxamide]",< 0.05

# Same assay, conditions: THP1 cells, 5 μM 2′3′-cGAMP, IFN β secretion inhibition; class symbols; read-out: IFN β reporter activity IC50
row,Structure (SMILES),IC50 [µM]
1,O=C(Nc1c[nH]c2ccccc12)c1n[nH]c2cc(C(F)(F)F)ccc12 [Example 2],0.05 to 0.2
